{"source": "paper PMC11365428", "about": "(The Journal of Biological Chemistry, 2024)", "key": {"apTKRPR-B T391": {"molecular_target": "apTKRPR-B T391 (Aplysia californica, UniProt A0AAU7STS1, DEL392-447)", "sequence (A0AAU7STS1 entry or part of it, stated change not applied)": "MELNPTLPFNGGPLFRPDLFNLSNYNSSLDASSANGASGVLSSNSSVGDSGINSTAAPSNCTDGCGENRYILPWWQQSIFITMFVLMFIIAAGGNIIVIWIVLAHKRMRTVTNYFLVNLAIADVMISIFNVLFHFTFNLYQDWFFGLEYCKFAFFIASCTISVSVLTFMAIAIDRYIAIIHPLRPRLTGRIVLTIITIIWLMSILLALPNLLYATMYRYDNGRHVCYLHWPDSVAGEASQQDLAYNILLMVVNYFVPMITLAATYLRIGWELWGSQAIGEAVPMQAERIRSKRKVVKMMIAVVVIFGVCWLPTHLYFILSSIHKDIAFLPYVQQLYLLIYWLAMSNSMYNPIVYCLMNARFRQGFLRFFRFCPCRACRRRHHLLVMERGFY", "experiment": "IP1 accumulation assay, C-terminal truncate apTKRPR-B T391", "type": "cell-based", "procedure": "(§1) To express putative Aplysia receptors transiently in CHO-K1 cells, the cDNAs were subcloned into the pcDNA3.1(+) or pcDNA3.1(+)-FLAG (for ELISA experiments only, see “Cell surface expression analysis by ELISA” section) expression vector. On the day before transfection, the CHO-K1 cells were passaged into 60 mm diameter tissue culture–treated dishes, and the transfection experiments were performed when the cells were grown to 70 to 90% confluence. CHO-K1 cells were transfected with the cDNA plasmid constructs using Turbofect Transfection reagent (Thermo Fisher Scientific, R0531), following the manufacturer’s instructions. In brief, 4 μg of the putative receptor plasmids [in pcDNA3.1(+) or pcDNA3.1(+)-FLAG] were mixed with 400 μl of Opti-MEM (Gibco, 11058021), followed by the addition of 15 μl of TurboFect Transfection reagent and incubated at room temperature for 15 min. […]\n(§2) The next day, transfected cells were trypsinized and reseeded in an opaque white 96-well half-area (Corning, 3688) or 384-well tissue culture–treated plates (Corning, 3570) at a density of 20,000 cells/well in F-12K and 10% FBS and incubated at 37 °C in a humidified incubator containing 5% CO2 overnight. On the third day, the activation of the putative receptors was detected by monitoring intracellular IP1 concentration using an IP-One Gq kit (Cisbio, 62IPAPEB) in Tecan Spark. […]"}, "apTKRPR-A": {"molecular_target": "T1, apTKRPR-A (Aplysia californica, UniProt A0AAU7SSZ1)", "T1 sequence (A0AAU7SSZ1 1-398)": "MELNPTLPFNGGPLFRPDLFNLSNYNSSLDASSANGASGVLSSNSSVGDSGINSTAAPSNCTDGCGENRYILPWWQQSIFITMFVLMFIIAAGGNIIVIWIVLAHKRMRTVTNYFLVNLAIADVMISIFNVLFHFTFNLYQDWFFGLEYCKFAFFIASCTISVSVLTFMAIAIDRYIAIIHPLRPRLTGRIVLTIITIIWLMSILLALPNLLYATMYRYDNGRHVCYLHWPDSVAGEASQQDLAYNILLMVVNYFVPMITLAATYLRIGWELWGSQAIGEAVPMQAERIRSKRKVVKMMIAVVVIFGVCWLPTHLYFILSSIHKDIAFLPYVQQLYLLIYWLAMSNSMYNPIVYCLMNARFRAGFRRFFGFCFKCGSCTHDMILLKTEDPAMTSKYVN", "experiment": "Cell surface expression by ELISA after ligand exposure, FLAG-apTKRPR-A", "type": "cell-based", "conditions": "10 µM, different durations, compared with 0 min, n = 4", "procedure": "Cell surface expression determination of apTKRPRs and mutant receptors, all with FLAG tags, was performed using a procedure modified from previous work ([64], [122], [123], [124]). Specifically, CHO-K1 cells were cultured in F-12K medium (Gibco, 21127-022) with 10% FBS (Genial, G11-70500) at 37 °C in a humidified incubator containing 5% CO2. When the cells were grown to 70 to 90% confluence, transfection experiments were performed (see “Cell culture and transfection” section). After 24 h, transfected cells were plated in 96-well white clear-bottom cell culture plates (Corning, 3610) at a density of 20,000 cells in 100 μl per well and incubated overnight. The following day, culture media was aspirated and cells were washed twice with 200 μl of 1× PBS (Procell, PB180327). Then, 100 μl of 1× PBS containing 5% (w/v) BSA was added to each well and incubated at room temperature. After 30 min, 100 μl of 1:10,000 anti-FLAG M2-horseradish peroxidase conjugate (Sigma-Aldrich, Cat A8592) was added to each well and incubated for 30 min at 37 °C. Cells were washed twice with 200 μl of 1× PBS and then incubated with 200 μl of TMB Chromogen Solution (Sangon Biotech, E661007) for 30 min at 37 °C in the dark. Finally, 50 μl of ELISA Stopping Solution (Sangon Biotech, E661006) was added to each well to stop the reaction. The absorbance at 450 nm was measured using a Tecan Spark microplate reader. […]"}, "apTKRPR-B 14A": {"molecular_target": "apTKRPR-B 14A (Aplysia californica, UniProt A0AAU7STS1, S392A/S396A/S399A/S407A/S415A/S421A/S426A/S434A/T393A/T411A/T412A/T422A/T424A/T435A)", "sequence (A0AAU7STS1 entry or part of it with the stated changes)": "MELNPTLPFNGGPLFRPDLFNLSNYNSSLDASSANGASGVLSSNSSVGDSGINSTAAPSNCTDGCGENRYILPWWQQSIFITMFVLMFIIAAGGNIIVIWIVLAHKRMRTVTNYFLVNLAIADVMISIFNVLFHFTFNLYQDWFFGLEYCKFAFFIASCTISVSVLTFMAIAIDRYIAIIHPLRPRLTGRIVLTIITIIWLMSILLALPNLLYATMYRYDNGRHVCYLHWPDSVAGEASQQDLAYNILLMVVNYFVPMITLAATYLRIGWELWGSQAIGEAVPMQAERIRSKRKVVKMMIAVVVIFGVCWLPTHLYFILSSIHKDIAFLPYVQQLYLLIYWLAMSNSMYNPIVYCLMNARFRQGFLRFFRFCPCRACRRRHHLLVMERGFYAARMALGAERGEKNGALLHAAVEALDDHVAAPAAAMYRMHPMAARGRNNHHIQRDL", "experiment": "IP1 accumulation assay, Ser/Thr-to-Ala mutant apTKRPR-B 14A", "type": "cell-based", "procedure": "as §1, §2"}, "[1]": {"test_system": "putative neuropeptide FF receptor (apNPFFR)", "experiment": "IP1 accumulation assay, CHO-K1 cells transiently expressing putative neuropeptide FF receptor", "type": "cell-based, Aplysia californica", "conditions": "10^-5 M compared with 10^-10 M (control); n = 3; no Gαq cotransfection", "procedure": "To express putative Aplysia receptors transiently in CHO-K1 cells, the cDNAs were subcloned into the pcDNA3.1(+) or pcDNA3.1(+)-FLAG (for ELISA experiments only, see “Cell surface expression analysis by ELISA” section) expression vector. On the day before transfection, the CHO-K1 cells were passaged into 60 mm diameter tissue culture–treated dishes, and the transfection experiments were performed when the cells were grown to 70 to 90% confluence. CHO-K1 cells were transfected with the cDNA plasmid constructs using Turbofect Transfection reagent (Thermo Fisher Scientific, R0531), following the manufacturer’s instructions. In brief, 4 μg of the putative receptor plasmids [in pcDNA3.1(+) or pcDNA3.1(+)-FLAG] were mixed with 400 μl of Opti-MEM (Gibco, 11058021), followed by the addition of 15 μl of TurboFect Transfection reagent and incubated at room temperature for 15 min. The DNA/TurboFect mixture dropwise was then added to the dish, and the cells were incubated at 37 °C in a humidified incubator containing 5% CO2 overnight.\nThe next day, transfected cells were trypsinized and reseeded in an opaque white 96-well half-area (Corning, 3688) or 384-well tissue culture–treated plates (Corning, 3570) at a density of 20,000 cells/well in F-12K and 10% FBS and incubated at 37 °C in a humidified incubator containing 5% CO2 overnight. On the third day, the activation of the putative receptors was detected by monitoring intracellular IP1 concentration using an IP-One Gq kit (Cisbio, 62IPAPEB) in Tecan Spark. Except for using 0.5x reagent, all other procedures were performed following the manufacturer’s instructions. IP1 accumulation assay measures the accumulation of IP1, which is hydrolyzed from the second messenger, and inositol triphosphate. Inositol triphosphate is generated by the Gαq pathway when a GPCR is activated by an appropriate ligand."}}, "note": "Non-standard residues stand in square brackets, D forms with d. Residues, ends and D or L forms follow the SMILES beside them. pGlu = O=C1CC[C@@H](C(=O)O)N1", "data": [{"smiles": "CC(C)C[C@H](NC(=O)[C@H](Cc1c[nH]cn1)NC(=O)[C@@H]1CCCN1C(=O)[C@@H]1CCC(=O)N1)C(=O)NCC(=O)N[C@@H](Cc1ccccc1)C(=O)N[C@@H](Cc1c[nH]cn1)C(=O)NCC(=O)N[C@@H](CO)C(=O)N[C@@H](CCCNC(=N)N)C(N)=O", "note": "[apTKRP-2b] ([pGlu]PHLGFHGSR-NH2)", "values": [{"measurement": "EC50", "setting": "apTKRPR-B T391", "result": 21.4, "unit": "nM"}, {"measurement": "cell surface receptor expression of apTKRPR-A after agonist exposure", "setting": "apTKRPR-A", "result": "significant loss of receptor expression"}, {"measurement": "EC50", "setting": "apTKRPR-B 14A", "result": 24.5, "unit": "nM"}, {"measurement": "IP1 response of putative apNPFFR in screening", "setting": "[1]", "result": "did not respond"}]}]}
